Results reported in patent publication US20240400560A1, “BICYCLIC HETEROCYCLIC DERIVATIVE HAVING VIRAL GROWTH INHIBITORY ACTIVITY AND PHARMACEUTICAL COMPOSITION CONTAINING SAME” (Shionogi & Co., Ltd., priority 2021, published 2024).

Target: SARS-CoV-2 3CL protease (Severe acute respiratory syndrome coronavirus 2, UniProt P0DTD1)
Assay: Inhibitory activity test against SARS-CoV-2 3CL proteases
Assay type: biochemical
Details: IC50 (50% SARS-CoV-2 3CL protease inhibitory concentration)

Question: `COc1nc(N2CC[C@@H](F)C2)cc2c1c(=O)n(Cc1ncn(C)n1)c(=O)n2Cc1cc(F)c(F)c(F)c1` [Compound I-0453] was tested. Which IC50 did it give?
Answer: 2.5 nM

Question: For `O=c1[nH]cccc1Cn1c(=O)c2ccc(N3[C@@H]4CC[C@H]3CNC4)cc2n(Cc2cc(F)c(F)c(F)c2)c1=O` [Compound I-0379], which IC50 is on record?
Answer: < 100 nM

Same assay, conditions: read-out: IC50 (50% SARS-CoV-2 3CL protease inhibitory concentration)

Question: How did the IC50 turn out when `O=c1[nH]cccc1Cn1c(=O)c2ccc(N3C[C@@H]4CN[C@@H](C4)C3)cc2n(Cc2cc(F)c(F)c(F)c2)c1=O` [Compound I-0378] was run?
Answer: < 100 nM

Question: `COc1cc(-c2cc(CC(=O)N(C)C)ccc2Cl)cc2c1c(=O)n(-c1cncc(Cl)c1)c(=O)n2Cc1cc(Cl)ccc1C` [Compound I-0205] was tested. Which IC50 did it give?
Answer: < 100 nM

Question: For `COc1cc(-c2cc(C(=O)NCCNCCO)ccc2Cl)cc2c1c(=O)n(Cc1ncn(C)n1)c(=O)n2Cc1cc(F)c(F)c(F)c1` [Compound I-0216], which IC50 is on record?
Answer: < 100 nM

Question: How did the IC50 turn out when `COc1cc(-c2cc(CC(=O)NC3CCN(C)CC3)ccc2Cl)cc2c1c(=O)n(-c1cncc(Cl)c1)c(=O)n2Cc1cc(F)c(F)c(F)c1` [Compound I-0197] was run?
Answer: < 100 nM

Question: For `Cn1cnc(Cn2c(=O)c3ccc(-c4cc5c(cc4Cl)NC(=O)C5)c(F)c3n(Cc3cc(F)c(F)c(F)c3)c2=O)n1` [Compound I-0250], which IC50 is on record?
Answer: 35 nM

Question: `COc1cc(-c2cc(C#N)ccc2Cl)cc2c1c(=O)n(-c1cncc(C)c1)c(=O)n2Cc1cc(F)c(F)c(C#N)c1` [Compound I-0165] was tested. Which IC50 did it give?
Answer: 1.2 nM

Question: `COc1cc(-c2c(Cl)ccc3c(=O)n(C)ccc23)cc2c1c(=O)n(Cc1ncn(C)n1)c(=O)n2Cc1cc(F)c(F)c(F)c1` [Compound I-0268] was tested. Which IC50 did it give?
Answer: 7.5 nM

Question: Which IC50 does the source give for `COc1cc(-c2cnc(N)cc2Cl)cc2c1c(=O)n(Cc1ncn(C)n1)c(=O)n2Cc1cc(F)c(F)c(F)c1` [Compound I-0514] here?
Answer: < 100 nM

Question: `COc1cc(-c2cc3c(cc2Cl)NC(=O)CC3)cc2c1c(=O)n(Cc1ncn(C)n1)c(=O)n2Cc1cc(F)c(F)c(F)c1` [Compound I-0125] was tested. Which IC50 did it give?
Answer: 32 nM

Question: For `COc1cc(-c2c(Cl)ccc3c(=O)[nH]ccc23)cc2c1c(=O)n(Cc1ncn(C)n1)c(=O)n2Cc1cc(F)c(F)c(F)c1` [Compound I-0274], which IC50 is on record?
Answer: 15 nM

Question: With `COc1cc(-c2cc(C(O)C(F)(F)F)ccc2Cl)cc2c1c(=O)n(Cc1ncn(C)n1)c(=O)n2Cc1cc(F)c(F)c(F)c1` (stereo not drawn) [Compound I-0517] as the compound, how does the IC50 read?
Answer: < 100 nM

Question: For `CNC(=O)c1ccc(Cl)c(-c2cc(OC)c3c(=O)n(Cc4ncn(C)n4)c(=O)n(Cc4cc(F)c(F)c(F)c4)c3c2)c1` [Compound I-0213], which IC50 is on record?
Answer: 33 nM

Question: With `CNC(=O)c1ccc(Cl)c(-c2cc(OC)c3c(=O)n(-c4cncc(C)c4)c(=O)n(Cc4ccc(F)c(C#N)c4)c3c2)c1` [Compound I-0192] as the compound, how does the IC50 read?
Answer: < 100 nM

Question: For `COc1ccc(Cl)c(-c2cc(OC)c3c(=O)n(Cc4ncn(C)n4)c(=O)n(Cc4cc(F)c(F)c(F)c4)c3c2)c1` [Compound I-0523], which IC50 is on record?
Answer: 32 nM

Question: How did the IC50 turn out when `COc1nc2cc(-c3cc(OC)c4c(=O)n(Cc5ncn(C)n5)c(=O)n(Cc5cc(F)c(F)c(F)c5)c4c3)c(Cl)cc2[nH]1` [Compound I-0501] was run?
Answer: 6.4 nM

Question: `COc1cc(-c2cc(CC(=O)NC3CCN(C)CC3)ccc2Cl)cc2c1c(=O)n(-c1cncc(Cl)c1)c(=O)n2Cc1cc(Cl)ccc1C` [Compound I-0187] was tested. Which IC50 did it give?
Answer: 5 nM

Question: Which IC50 does the source give for `COc1cc(-c2cc(S(C)(=N)=O)ccc2Cl)cc2c1c(=O)n(Cc1ncn(C)n1)c(=O)n2Cc1cc(F)c(F)c(F)c1` (stereo not drawn) [Compound I-0207] here?
Answer: 23 nM

Question: Which IC50 does the source give for `COc1nc(N2C[C@H]3C[C@@H]2CN3)cc2c1c(=O)n(Cc1ncn(C)n1)c(=O)n2Cc1cc(F)c(F)c(F)c1` [Compound I-0389] here?
Answer: 1.9 nM

Question: Which IC50 does the source give for `Cn1cnc(Cn2c(=O)c3ncc(-c4cc5c(cc4Cl)NC(=O)C5)cc3n(Cc3cc(F)c(F)c(Cl)c3)c2=O)n1` [Compound I-0121] here?
Answer: < 100 nM

Question: With `Cn1cnc(Cn2c(=O)c3c(F)c(I)c(-c4cc(C#N)ccc4Cl)cc3n(Cc3cc(F)c(F)c(Cl)c3)c2=O)n1` [Compound I-0542] as the compound, how does the IC50 read?
Answer: < 100 nM

Question: Which IC50 does the source give for `COc1cc(-c2cc(CO)ccc2Cl)cc2c1c(=O)n(-c1cncc(C)c1)c(=O)n2Cc1cc(F)c(F)c(F)c1` [Compound I-0030] here?
Answer: 8.5 nM

Question: For `COc1cc(-c2cc(C(C)(C)O)ccc2Cl)cc2c1c(=O)n(-c1cncc(C)c1)c(=O)n2Cc1cc(F)c(F)c(F)c1` [Compound I-0069], which IC50 is on record?
Answer: 6 nM
